Measurements from patent US12162902B2, “Decarboxylase inhibitors for treating Parkinson's disease” (SAIL BIOMEDICINES, priority 2018, dated 2024).
Like-named read-outs stand apart in the source and are kept apart here.

What was measured:
[1] = target: Tyrosine decarboxylase (tdc) (Enterococcus faecalis (strain EnGen0310 / MMH594), UniProt P0DTQ4); assay: Inhibition of tyrosine decarboxylase in vitro (dopamine formed from levodopa, LC-MS); type: biochemical; settings: 60 min preincubation of tdc with inhibitor at room temperature, pH 5.5, 9 mM levodopa, 5 min reaction
Method: Tyrosine decarboxylase (tdc) was obtained by following a previously published literature procedure (Science, 14 Jun. 2019: Vol. 364, Issue 6445, eaau6323). Tdc (220 nM final concentration) was thawed on ice and then mixed with pyridoxal-5-phosphate (2.2 mM final concentration) in 200 mM sodium acetate buffer, pH 5.5 optionally containing 1 mM TCEP. To this mixture was added inhibitor at a final concentration of 1000, 333, 111, 37, 12, 4.1, 1.4, or 0 μM (final volume: 100 μL; inhibitor was 100-fold concentrated in a solution of DMSO, H2O, or DMSO:H2O (1/1 v/v)). The protein-inhibitor mixture was incubated at room temperature for 60 min. 6 μL of this mixture was then withdrawn from each solution and mixed with 54 μL of 10 mM levodopa in 200 mM sodium acetate buffer pH 5.5. The final concentration of the reaction was 22 nM tdc, 220 μM pyridoxal-5-phosphate, 9 mM levodopa in 200 mM sodium acetate buffer pH 5.5 with 0-100 μM inhibitor. The reaction was proceeded for 5 min at room temperature before quenching by addition of 540 μL acetonitrile containing 0.1 (v/v) formic acid supplemented with 200 nM tolbutamide as an internal standard. The reactions were centrifuged (3,000 g, 10 min), and then 100 μL of each supernatant was transferred to a fresh plate. 100 μL of acetonitrile containing 0.1% (v/v) formic acid supplemented with 200 nM tolbutamide was added. An external standard curve containing 0-150 μM dopamine was prepared in the exact same manner.
Dopamine formed in each reaction was quantified by using an Agilent 6470 triple quadrupole mass spectrometer equipped with an Acquity UPLC. Mobile phase A consisted of H2O containing 10 mM ammonium formate, pH 3.0 and supplemented with 0.1% (v/v) formic acid. Mobile phase B consisted of acetonitrile containing 10 mM ammonium formate, pH 3.0 and supplemented with 0.1% (v/v) formic acid. 5 μL of each sample was injected onto a BEH Amide column (Waters Corporation, 2.1×50 mm, 1.7 μm). The gradient was set to: 100% mobile phase B at 0 min, decreasing linearly to 65% mobile phase B by 1.5 min, held constant at 65% mobile phase B until 2.5 min, ramped back up to 100% mobile phase B by 2.6 min, and held constant at 100% mobile phase B until 4.2 min. The flow rate was 0.6 mL/min. The dopamine was detected by using the mass spectrometer in multiple reaction monitoring (MRM) mode, quantifying the transition 154.1 to 137.0 m/z in positive mode. The fragmentor setting was 74, the collision energy was 9, and the cell accelerator voltage was 4, and the dwell time was 20. Tolbutamide was monitored using MRM and quantifying the transition of 271.1 to 91.0 m/z in positive mode. The fragmentor setting was 88, the collision energy was 37, and the cell accelerator voltage was 4, and the dwell time was 20.
The amount of dopamine was quantified by normalizing the area to the area of tolbutamide internal standard within each sample. This relative response was then compared to that of the standard curve to obtain the dopamine formed within each sample. The concentration of dopamine formed as a function of the inhibitor concentration at the preincubation stage was plotted in GraphPad Prism 8, and the IC50 was calculated using the non-linear fit for the standard IC50 curve equation “[inhibitor] vs response (three parameters).”

[2] = test system: Enterococcus faecalis v583; assay: Inhibition of E. faecalis decarboxylation activity in vitro (residual levodopa, LC-MS); type: cell-based
[3] = Enterococcus faecalis, V583, E. faecalis v583 culture in BHI broth pH 5 with 1.5 mM levodopa, 24 h at 37° C. anaerobic, read-out: IC50 @ 60 min
[4] = E. faecalis v583 culture in BHI broth pH 5 with 1.5 mM levodopa, 24 h at 37° C. anaerobic, read-out: IC50 @ 60 min

Chain of Tyrosine decarboxylase (tdc) (P0DTQ4 whole entry): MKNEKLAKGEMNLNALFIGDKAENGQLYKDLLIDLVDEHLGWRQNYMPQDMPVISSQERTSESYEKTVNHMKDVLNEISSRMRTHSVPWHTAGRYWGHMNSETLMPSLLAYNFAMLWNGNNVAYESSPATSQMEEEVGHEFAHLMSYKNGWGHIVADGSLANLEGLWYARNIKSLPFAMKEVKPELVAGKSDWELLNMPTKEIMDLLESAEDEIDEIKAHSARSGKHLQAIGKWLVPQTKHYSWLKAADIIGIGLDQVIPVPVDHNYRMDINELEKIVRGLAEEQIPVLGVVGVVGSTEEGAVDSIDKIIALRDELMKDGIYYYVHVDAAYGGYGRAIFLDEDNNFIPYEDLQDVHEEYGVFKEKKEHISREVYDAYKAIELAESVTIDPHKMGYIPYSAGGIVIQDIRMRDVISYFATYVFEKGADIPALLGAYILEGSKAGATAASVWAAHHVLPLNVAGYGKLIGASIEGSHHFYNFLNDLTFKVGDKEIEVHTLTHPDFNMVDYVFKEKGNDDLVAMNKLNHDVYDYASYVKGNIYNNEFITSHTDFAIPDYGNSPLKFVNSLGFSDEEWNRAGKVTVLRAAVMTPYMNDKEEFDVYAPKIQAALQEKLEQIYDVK

Molecule | IC50 ([1]; IC50 @ 60 min) | IC50 [2, 3] | IC50 ([1]; read-out: IC50 @ 60 min) | also measured
CC(N)(Cc1ccc(O)c(O)c1)C(=O)O (stereo not drawn) [Compound Q, 2-amino-3-(3,4-dihydroxyphenyl)-2-methylpropanoic Acid] | > 1000 µM | > 1000 µM |  | 
Cc1cc(CCN)ccc1O [Compound P, 4-(2-aminoethyl)-2-methylphenol] | > 1000 µM |  |  | IC50 ([2]; Enterococcus faecalis, V583, read-out: IC50 @ 60 min): > 1000 µM
NC(CF)(Cc1ccc(O)c(F)c1)C(=O)O (stereo not drawn) [Compound M, 2-amino-3-fluoro-2-(3-fluoro-4-hydroxybenzyl)propanoic Acid] |  |  | 3.2 µM | 
CC(=O)NC(C)(Cc1ccc(O)cc1)C(=O)O (stereo not drawn) [Compound X, 2-acetamido-3-(4-hydroxyphenyl)-2-methylpropanoic Acid] | > 1000 µM | > 1000 µM |  | 
NC(CF)(Cc1cccc(O)c1)C(=O)O (stereo not drawn) [Compound R, 2-amino-3-fluoro-2-(3-hydroxybenzyl)propanoic Acid] |  | > 1000 µM |  | IC50 @ 60 min [1]: Minor inhibition
CC(=O)NC(CF)(Cc1ccc(O)cc1)C(=O)O (stereo not drawn) [Compound Y, 2-acetamido-3-fluoro-2-(4-hydroxybenzyl)propanoic acid] | > 1000 µM | > 1000 µM |  | 
NC(CF)(Cc1ccc(O)c(Cl)c1)C(=O)O (stereo not drawn) [Compound L, 2-amino-2-(3-chloro-4-hydroxybenzyl)-3-fluoropropanoic Acid] |  |  | 2.5 µM | 
NC(CF)(Cc1ccc(O)cc1)C(=O)O (single isomer, unassigned) [S] |  |  | 4 µM | IC50 [2, 4]: 2 µM
2-amino-2-(fluoromethyl)-4-(4-hydroxyphenyl)butanoic acid [Compound U] |  |  | > 1000 µM | 
NC(Cc1ccc(O)cc1)(C(=O)O)C(F)F (stereo not drawn) [Compound K, 2-amino-3,3-difluoro-2-(4-hydroxybenzyl)propanoic Acid] |  |  |  | IC50 @ 60 min [1]: Minor inhibition
NC(CF)(Cc1ccccc1)C(=O)O (stereo not drawn) [Compound Z, 2-amino-2-benzyl-3-fluoropropanoic Acid] | > 1000 µM | > 1000 µM |  | 
NC(CF)(Cc1ccc(O)cc1)C(=O)O (single isomer, unassigned) [T] |  |  | 82.3 µM | IC50 [2, 4]: 18.5 µM
COC(=O)NC(CF)(Cc1ccc(O)cc1)C(=O)O (stereo not drawn) [Compound W, 3-fluoro-2-(4-hydroxybenzyl)-2-((methoxycarbonyl)amino)-propanoic Acid] | > 1000 µM | > 1000 µM |  | 
COC(=O)NC(C)(Cc1ccc(O)cc1)C(=O)O (stereo not drawn) [Compound V, 3-(4-hydroxyphenyl)-2-((methoxycarbonyl)amino)-2-methylpropanoic Acid] | > 1000 µM | > 1000 µM |  | 
CCC(N)(Cc1ccc(O)cc1)C(=O)O (stereo not drawn) [O, 2-amino-2-(4-hydroxybenzyl)butanoic Acid] | > 1000 µM | > 1000 µM |  | 
Cc1cc(CC(N)(CF)C(=O)O)ccc1O (stereo not drawn) [Compound N, 2-amino-3-fluoro-2-(4-hydroxy-3-methylbenzyl)propanoic Acid] |  |  | 2.6 µM | 
